Literature values, collected in patent US20180207149A1, “METHODS AND COMPOSITIONS FOR ENHANCING IMMUNE RESPONSE TO VACCINATION” (priority 2015, published 2018).

Test system: immunizing influenza vaccine strains
Conditions: elderly subjects with chronic illness; topical, before intradermal trivalent influenza vaccine

## CC(C)Cn1cnc2c(N)nc3ccccc3c21 [imiquimod]
  immunogenicity against the immunizing influenza vaccine strains: expedited, augmented and prolonged the immunogenicity
